The structures appear in SMILES notation. Some results are limits rather than exact numbers.

The values that follow come from US11130769B2 (Prelude Therapeutics Incorporated, priority 2018, dated 2021).

One experiment deals with MCL-1 (Homo sapiens (Human), UniProt Q07820). Nature of the experiment: Cell free Mcl-1:Bim affinity assay (fluorescence polarization competition). In kind it is binding. To be noted: 15 nM MCL-1, 5 nM FITC-Bim, 1 hour at room temperature; class symbols; read-out: BIM_Ki. The method in brief: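 Fluorescence polarization competition: 10-point 3-fold compound dilutions displaced 5 nM FITC-Bim from 15 nM MCL-1 over 1 h at room temperature. Ki was derived from the fitted IC50 using the Nikolovska-Coleska equation, with percent inhibition normalized to DMSO and positive controls.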
Chain of MCL-1 (Q07820 whole entry): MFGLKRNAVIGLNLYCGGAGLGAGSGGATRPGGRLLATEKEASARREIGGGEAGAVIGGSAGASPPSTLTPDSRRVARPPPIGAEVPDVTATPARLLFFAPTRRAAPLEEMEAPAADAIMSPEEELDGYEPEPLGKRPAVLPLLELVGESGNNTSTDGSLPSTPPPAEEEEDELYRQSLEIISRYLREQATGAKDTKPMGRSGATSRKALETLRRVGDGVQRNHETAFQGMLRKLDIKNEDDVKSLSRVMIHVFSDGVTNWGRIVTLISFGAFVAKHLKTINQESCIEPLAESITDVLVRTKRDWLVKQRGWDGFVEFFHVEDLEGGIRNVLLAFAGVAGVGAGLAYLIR

A further experiment deals with H929 cells. Nature of the experiment: Cell viability assay (H929 10 FBS). It counts as cell-based. As to conditions: Homo sapiens, NCI-H929, 24 hours, read-out: H929_10FBS IC50. The method in brief: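 ATP-based luminescence (CellTiter-Glo or ATPlite 1 Step, 30-60 min at RT) gauged viability of H929 myeloma cells after 24 h compound treatment at 37 °C. Cells plated at 4000 per well in 10% FBS RPMI 1640 supplemented with pyruvate, HEPES and glucose.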

Regarding `CC1(C)OC/C=C/[C@H](OC(=O)NCC2CC2)[C@@H]2CC[C@H]2CN2C[C@@]3(CCCc4cc(Cl)ccc43)COc3ccc(cc32)S(=O)(=O)NC1=O` [Example 183, [(3R,6R,7S,8E,22S)-6′-Chloro-12,12-dimethyl-13,15,15-trioxo-spiro[11,20-dioxa-15-thia-1,14-diazatetracyclo[14.7.2.03,6.019,24]pentacosa-8,16,18,24-tetraene-22,1′-tetralin]-7-yl] N-(cyclopropylmethyl)carbamate], on MCL-1, the Ki was less than 1 nM. In the experiment on H929 cells, the IC50 was less than 500 nM.
Taken in the same sequence, the figures for `CC1(C)OC/C=C/[C@H](OC(=O)NC2CCC2)[C@@H]2CC[C@H]2CN2C[C@@]3(CCCc4cc(Cl)ccc43)COc3ccc(cc32)S(=O)(=O)NC1=O` [Example 184, [(3R,6R,7S,8E,22S)-6′-Chloro-12,12-dimethyl-13,15,15-trioxo-spiro[11,20-dioxa-15-thia-1,14-diazatetracyclo[14.7.2.03,6.019,24]pentacosa-8,16,18,24-tetraene-22,1′-tetralin]-7-yl] N-cyclobutylcarbamate] were less than 1 nM and less than 500 nM.
On the same counts, the results for `CC1(C)OC/C=C/[C@H](OC(=O)NC2CCOCC2)[C@@H]2CC[C@H]2CN2C[C@@]3(CCCc4cc(Cl)ccc43)COc3ccc(cc32)S(=O)(=O)NC1=O` [Example 185, [(3R,6R,7S,8E,22S)-6′-Chloro-12,12-dimethyl-13,15,15-trioxo-spiro[11,20-dioxa-15-thia-1,14-diazatetracyclo[14.7.2.03,6.019,24]pentacosa-8,16,18,24-tetraene-22,1′-tetralin]-7-yl] N-tetrahydropyran-4-ylcarbamate] are less than 1 nM and less than 500 nM.
As to `CC(C)N1CCN(C(=O)O[C@H]2/C=C/COC(C)(C)C(=O)NS(=O)(=O)c3ccc4c(c3)N(C[C@@H]3CC[C@H]32)C[C@@]2(CCCc3cc(Cl)ccc32)CO4)CC1` [Example 186, [(3R,6R,7S,8E,22S)-6′-Chloro-12,12-dimethyl-13,15,15-trioxo-spiro[11,20-dioxa-15-thia-1,14-diazatetracyclo[14.7.2.03,6.019,24]pentacosa-8,16,18,24-tetraene-22,1′-tetralin]-7-yl] 4-isopropylpiperazine-1-carboxylate], on MCL-1, the Ki is less than 1 nM. In addition, in the experiment on H929 cells, the IC50 was less than 500 nM.
As to `CC1(C)OC/C=C/[C@H](OC(=O)N2CCN(C3COC3)CC2)[C@@H]2CC[C@H]2CN2C[C@@]3(CCCc4cc(Cl)ccc43)COc3ccc(cc32)S(=O)(=O)NC1=O` [Example 187, [(3R,6R,7S,8E,22S)-6′-Chloro-12,12-dimethyl-13,15,15-trioxo-spiro[11,20-dioxa-15-thia-1,14-diazatetracyclo[14.7.2.03,6.019,24]pentacosa-8,16,18,24-tetraene-22,1′-tetralin]-7-yl] 4-(oxetan-3-yl)piperazine-1-carboxylate], the Ki on MCL-1 was less than 1 nM. For the same compound, the IC50 with H929 cells was less than 500 nM.
Taken in the same sequence, the figures for `CC1(C)OC/C=C/[C@H](OC(=O)NC2CC2)[C@@H]2CC[C@H]2CN2C[C@@]3(CCCc4cc(Cl)ccc43)COc3ccc(cc32)S(=O)(=O)NC1=O` [Example 188, [(3R,6R,7S,8E,22S)-6′-Chloro-12,12-dimethyl-13,15,15-trioxo-spiro[11,20-dioxa-15-thia-1,14-diazatetracyclo[14.7.2.03,6.019,24]pentacosa-8,16,18,24-tetraene-22,1′-tetralin]-7-yl] N-cyclopropylcarbamate] were less than 1 nM and less than 500 nM.
As to `CN1CCN(C(=O)O[C@H]2/C=C/COC(C)(C)C(=O)NS(=O)(=O)c3ccc4c(c3)N(C[C@@H]3CC[C@H]32)C[C@@]2(CCCc3cc(Cl)ccc32)CO4)CC1` [Example 189, [(3R,6R,7S,8E,22S)-6′-Chloro-12,12-dimethyl-13,15,15-trioxo-spiro[11,20-dioxa-15-thia-1,14-diazatetracyclo[14.7.2.03,6.019,24]pentacosa-8,16,18,24-tetraene-22,1′-tetralin]-7-yl] 4-methylpiperazine-1-carboxylate], the Ki on MCL-1 is less than 1 nM. In the experiment on H929 cells, the IC50 was less than 500 nM.
Consider `CC1(C)OC/C=C/[C@H](OC(=O)N2CCC(O)CC2)[C@@H]2CC[C@H]2CN2C[C@@]3(CCCc4cc(Cl)ccc43)COc3ccc(cc32)S(=O)(=O)NC1=O` [Example 190, [(3R,6R,7S,8E,22S)-6′-Chloro-12,12-dimethyl-13,15,15-trioxo-spiro[11,20-dioxa-15-thia-1,14-diazatetracyclo[14.7.2.03,6.019,24]pentacosa-8,16,18,24-tetraene-22,1′-tetralin]-7-yl] 4-hydroxypiperidine-1-carboxylate], for which the Ki on MCL-1 is less than 1 nM. Moreover, in the experiment with H929 cells, the IC50 was less than 500 nM.
For `COCCNC(=O)O[C@H]1/C=C/COC(C)(C)C(=O)NS(=O)(=O)c2ccc3c(c2)N(C[C@@H]2CC[C@H]21)C[C@@]1(CCCc2cc(Cl)ccc21)CO3` [Example 191, [(3R,6R,7S,8E,22S)-6′-Chloro-12,12-dimethyl-13,15,15-trioxo-spiro[11,20-dioxa-15-thia-1,14-diazatetracyclo[14.7.2.03,6.019,24]pentacosa-8,16,18,24-tetraene-22,1′-tetralin]-7-yl] N-(2-methoxyethyl)carbamate], the Ki at MCL-1 is less than 1 nM. Further, the IC50 in the experiment on H929 cells is less than 500 nM.
Regarding `CC1(C)OC/C=C/[C@H](OC(=O)NC2COC2)[C@@H]2CC[C@H]2CN2C[C@@]3(CCCc4cc(Cl)ccc43)COc3ccc(cc32)S(=O)(=O)NC1=O` [Example 192, [(3R,6R,7S,8E,22S)-6′-Chloro-12,12-dimethyl-13,15,15-trioxo-spiro[11,20-dioxa-15-thia-1,14-diazatetracyclo[14.7.2.03,6.019,24]pentacosa-8,16,18,24-tetraene-22,1′-tetralin]-7-yl] N-(oxetan-3-yl)carbamate], the Ki on MCL-1 was less than 1 nM. In addition, the IC50 in the experiment on H929 cells is less than 500 nM.
Taken in the same sequence, the figures for `CC1(C)OC/C=C/[C@H](OC(=O)NCCN2CCCCC2)[C@@H]2CC[C@H]2CN2C[C@@]3(CCCc4cc(Cl)ccc43)COc3ccc(cc32)S(=O)(=O)NC1=O` [Example 193, [(3R,6R,7S,8E,22S)-6′-Chloro-12,12-dimethyl-13,15,15-trioxo-spiro[11,20-dioxa-15-thia-1,14-diazatetracyclo[14.7.2.03,6.019,24]pentacosa-8,16,18,24-tetraene-22,1′-tetralin]-7-yl] N-[2-(1-piperidyl)ethyl]carbamate] were 1 to 100 nM and less than 500 nM.
Turning to `CNCCN(C)C(=O)O[C@H]1/C=C/COC(C)(C)C(=O)NS(=O)(=O)c2ccc3c(c2)N(C[C@@H]2CC[C@H]21)C[C@@]1(CCCc2cc(Cl)ccc21)CO3` [Example 194, [(3R,6R,7S,8E,22S)-6′-Chloro-12,12-dimethyl-13,15,15-trioxo-spiro[11,20-dioxa-15-thia-1,14-diazatetracyclo[14.7.2.03,6.019,24]pentacosa-8,16,18,24-tetraene-22,1′-tetralin]-7-yl] N-methyl-N-[2-(methylamino)ethyl]carbamate], the Ki at MCL-1 was less than 1 nM. Moreover, the IC50 with H929 cells is less than 500 nM.
With `CO[C@H]1CCN(C(=O)O[C@H]2/C=C/COC(C)(C)C(=O)NS(=O)(=O)c3ccc4c(c3)N(C[C@@H]3CC[C@H]32)C[C@@]2(CCCc3cc(Cl)ccc32)CO4)C1` [Example 195, [(3R,6R,7S,8E,22S)-6′-Chloro-12,12-dimethyl-13,15,15-trioxo-spiro[11,20-dioxa-15-thia-1,14-diazatetracyclo[14.7.2.03,6.019,24]pentacosa-8,16,18,24-tetraene-22,1′-tetralin]-7-yl] (3S)-3-methoxypyrrolidine-1-carboxylate], at MCL-1, the Ki is less than 1 nM. Also, the IC50 in the experiment with H929 cells is less than 500 nM.
On to `C[C@@H]1NC(=O)COC[C@@H]2CC[C@H]2CN2C[C@@]3(CCCc4cc(Cl)ccc43)COc3ccc(cc32)S(=O)(=O)NC1=O` [Example 197, (3R,6R,12S,22S)-6′-Chloro-12-methyl-15,15-dioxo-spiro[8,20-dioxa-15-thia-1,11,14-triazatetracyclo[14.7.2.0˜3,6.0˜19,24]pentacosa-16,18,24-triene-22,1′-tetralin]-10,13-dione], for which the Ki on MCL-1 is 1 to 100 nM. The IC50 with H929 cells is more than 1000 nM.
Taken in the same sequence, the figures for `CN(C)C(=O)O[C@@H]1/C=C/CNC(C)(C)C(=O)NS(=O)(=O)c2ccc3c(c2)N(C[C@@H]2CC[C@H]21)C[C@@]1(CCCc2cc(Cl)ccc21)CO3` [Example 198, [(3R,6R,7R,8E,22S)-6′-Chloro-12,12-dimethyl-13,15,15-trioxo-spiro[20-oxa-15-thia-1,11,14-triazatetracyclo[14.7.2.0˜3,6.0˜19,24]pentacosa-8,16,18,24-tetraene-22,1′-tetralin]-7-yl] N,N-dimethylcarbamate] were less than 1 nM and less than 500 nM.
`CN1C/C=C/[C@H](OC(=O)N2CCOCC2)[C@@H]2CC[C@H]2CN2C[C@@]3(CCCc4cc(Cl)ccc43)COc3ccc(cc32)S(=O)(=O)NC(=O)C1(C)C` [Example 199, [(3R,6R,7S,8E,22S)-6′-Chloro-11,12,12-trimethyl-13,15,15-trioxo-spiro[20-oxa-15-thia-1,11,14-triazatetracyclo[14.7.2.03,6.019,24]pentacosa-8,16,18,24-tetraene-22,1′-tetralin]-7-yl]morpholine-4-carboxylate]: at MCL-1, the Ki was less than 1 nM. Further, in the experiment with H929 cells, the IC50 was less than 500 nM.
On the same counts, the results for `CN(C)C(=O)O[C@@H]1/C=C/CN(C)C(C)(C)C(=O)NS(=O)(=O)c2ccc3c(c2)N(C[C@@H]2CC[C@H]21)C[C@@]1(CCCc2cc(Cl)ccc21)CO3` [Example 200, [(3R,6R,7R,8E,22S)-6′-Chloro-11,12,12-trimethyl-13,15,15-trioxo-spiro[20-oxa-15-thia-1,11,14-triazatetracyclo[14.7.2.03,6.019,24]pentacosa-8,16,18,24-tetraene-22,1′-tetralin]-7-yl] N,N-dimethylcarbamate] are 1 to 100 nM and less than 500 nM.
